Patent US9120812B2, “Pyrimidooxazocine derivatives as mTOR-inhibitors” (SANOFI, priority 2012, dated 2015)
Read-outs that look alike come from different tables or passages of the source.

Experiments:
[1] = biological target: mTOR (human recombinant aa mTOR 1360-2549) (Homo sapiens (Human), UniProt P42345); assay: mTOR enzymatic test by TR-FRET (phosphorylation of GFP-4EBP1); assay type: biochemical
Method in brief: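 After a 30 min room-temperature kinase reaction, EDTA (10 mM final) and Tb-labelled phospho-Thr46 antibody (2 nM final) were added and incubated 60 min. Energy transfer from Tb to phosphorylated GFP-4EBP1 was read at 340 nm excitation, emissions 490/520 nm. Values derive from the 520/490 fluorescence ratio.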

PI3Kα (p110α/p85α) = PI3Kα (p110α/p85α) (Homo sapiens (Human), UniProt P42336); assay: PI3Kα enzymatic test by measuring the consumption of ATP; assay type: biochemical
Chain of PI3Kα (p110α/p85α) (P42336 whole entry): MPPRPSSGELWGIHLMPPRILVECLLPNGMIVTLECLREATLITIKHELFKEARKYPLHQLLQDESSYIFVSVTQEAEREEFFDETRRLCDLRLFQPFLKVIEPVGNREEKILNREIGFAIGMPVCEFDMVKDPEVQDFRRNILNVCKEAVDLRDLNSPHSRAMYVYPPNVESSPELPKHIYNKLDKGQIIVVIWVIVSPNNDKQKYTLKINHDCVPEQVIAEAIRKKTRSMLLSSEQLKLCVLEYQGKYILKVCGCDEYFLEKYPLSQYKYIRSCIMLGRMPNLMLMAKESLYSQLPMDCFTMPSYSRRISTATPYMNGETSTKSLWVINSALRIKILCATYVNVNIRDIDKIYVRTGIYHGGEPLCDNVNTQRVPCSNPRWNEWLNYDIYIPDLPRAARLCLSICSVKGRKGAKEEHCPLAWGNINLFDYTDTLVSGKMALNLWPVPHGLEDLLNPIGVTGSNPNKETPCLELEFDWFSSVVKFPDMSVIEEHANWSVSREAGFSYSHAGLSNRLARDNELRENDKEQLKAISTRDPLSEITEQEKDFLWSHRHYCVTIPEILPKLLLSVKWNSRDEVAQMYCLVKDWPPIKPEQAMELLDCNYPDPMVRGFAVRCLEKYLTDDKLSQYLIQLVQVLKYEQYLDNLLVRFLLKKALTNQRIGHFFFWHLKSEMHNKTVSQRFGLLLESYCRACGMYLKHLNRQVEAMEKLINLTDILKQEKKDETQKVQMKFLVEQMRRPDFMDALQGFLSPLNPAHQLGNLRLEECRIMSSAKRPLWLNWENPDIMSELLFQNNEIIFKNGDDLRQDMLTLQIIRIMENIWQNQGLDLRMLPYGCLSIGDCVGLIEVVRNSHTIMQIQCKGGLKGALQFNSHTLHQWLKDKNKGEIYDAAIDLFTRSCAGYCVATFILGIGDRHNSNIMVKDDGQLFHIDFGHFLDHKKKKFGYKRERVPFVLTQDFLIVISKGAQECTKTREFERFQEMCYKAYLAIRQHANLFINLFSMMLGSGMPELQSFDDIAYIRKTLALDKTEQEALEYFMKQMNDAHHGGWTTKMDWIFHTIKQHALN
Chain of PI3Kα (p110α/p85α) (P27986 whole entry partner): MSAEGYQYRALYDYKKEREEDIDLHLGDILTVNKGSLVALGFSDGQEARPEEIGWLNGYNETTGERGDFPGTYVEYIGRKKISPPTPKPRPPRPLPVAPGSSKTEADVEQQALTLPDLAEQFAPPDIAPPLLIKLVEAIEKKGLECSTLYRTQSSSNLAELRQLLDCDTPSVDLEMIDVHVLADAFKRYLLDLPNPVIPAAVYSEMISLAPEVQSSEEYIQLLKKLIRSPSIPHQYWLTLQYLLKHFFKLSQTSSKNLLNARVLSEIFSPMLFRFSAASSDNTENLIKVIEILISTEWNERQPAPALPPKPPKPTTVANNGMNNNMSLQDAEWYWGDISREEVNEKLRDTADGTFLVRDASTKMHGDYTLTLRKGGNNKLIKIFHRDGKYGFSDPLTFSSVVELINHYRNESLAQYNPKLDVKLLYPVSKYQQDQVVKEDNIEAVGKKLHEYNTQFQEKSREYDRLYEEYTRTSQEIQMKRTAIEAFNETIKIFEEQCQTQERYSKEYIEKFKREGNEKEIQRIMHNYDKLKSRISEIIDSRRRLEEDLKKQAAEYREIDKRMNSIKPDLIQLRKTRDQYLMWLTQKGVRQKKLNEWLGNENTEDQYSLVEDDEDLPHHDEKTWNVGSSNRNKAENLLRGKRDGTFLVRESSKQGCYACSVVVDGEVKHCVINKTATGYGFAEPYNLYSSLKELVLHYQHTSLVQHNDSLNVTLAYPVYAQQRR
Method in brief: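 ATP consumption read out by KinaseGlo luminescence after a 90 min reaction of 1.7 μg/ml PI3Kα (p110α/p85α) with 2 μM ATP and 50 μM PIP2, buffered at pH 7.5 (Tris, 10 mM MgCl2, 1 mM EGTA, 0.03% Chaps, 1 mM DTT). Threefold dilution series over ≥10 000-fold range yield IC50.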

U87MG tumour cells = assay: Test of in vitro proliferation of U87MG tumour cells; assay type: cell-based; conditions: U87MG cells, 72 hours, read-out: U87 Cell Proliferation IC50
Procedure: Model 4: Test of in vitro Proliferation of U87MG Tumour Cells.
The cell growth is determined with the reagent CellTiter 96 AQueous One Solution Cell Proliferation Assay from Promega (Cat. No. G3581).

[2] = Homo sapiens, U-87 MG, read-out: U87 Akt-pS473 % Inhibition or IC50, nM (IC50), U87MG cells

Chain of mTOR (human recombinant aa mTOR 1360-2549) (P42345 1360-2549): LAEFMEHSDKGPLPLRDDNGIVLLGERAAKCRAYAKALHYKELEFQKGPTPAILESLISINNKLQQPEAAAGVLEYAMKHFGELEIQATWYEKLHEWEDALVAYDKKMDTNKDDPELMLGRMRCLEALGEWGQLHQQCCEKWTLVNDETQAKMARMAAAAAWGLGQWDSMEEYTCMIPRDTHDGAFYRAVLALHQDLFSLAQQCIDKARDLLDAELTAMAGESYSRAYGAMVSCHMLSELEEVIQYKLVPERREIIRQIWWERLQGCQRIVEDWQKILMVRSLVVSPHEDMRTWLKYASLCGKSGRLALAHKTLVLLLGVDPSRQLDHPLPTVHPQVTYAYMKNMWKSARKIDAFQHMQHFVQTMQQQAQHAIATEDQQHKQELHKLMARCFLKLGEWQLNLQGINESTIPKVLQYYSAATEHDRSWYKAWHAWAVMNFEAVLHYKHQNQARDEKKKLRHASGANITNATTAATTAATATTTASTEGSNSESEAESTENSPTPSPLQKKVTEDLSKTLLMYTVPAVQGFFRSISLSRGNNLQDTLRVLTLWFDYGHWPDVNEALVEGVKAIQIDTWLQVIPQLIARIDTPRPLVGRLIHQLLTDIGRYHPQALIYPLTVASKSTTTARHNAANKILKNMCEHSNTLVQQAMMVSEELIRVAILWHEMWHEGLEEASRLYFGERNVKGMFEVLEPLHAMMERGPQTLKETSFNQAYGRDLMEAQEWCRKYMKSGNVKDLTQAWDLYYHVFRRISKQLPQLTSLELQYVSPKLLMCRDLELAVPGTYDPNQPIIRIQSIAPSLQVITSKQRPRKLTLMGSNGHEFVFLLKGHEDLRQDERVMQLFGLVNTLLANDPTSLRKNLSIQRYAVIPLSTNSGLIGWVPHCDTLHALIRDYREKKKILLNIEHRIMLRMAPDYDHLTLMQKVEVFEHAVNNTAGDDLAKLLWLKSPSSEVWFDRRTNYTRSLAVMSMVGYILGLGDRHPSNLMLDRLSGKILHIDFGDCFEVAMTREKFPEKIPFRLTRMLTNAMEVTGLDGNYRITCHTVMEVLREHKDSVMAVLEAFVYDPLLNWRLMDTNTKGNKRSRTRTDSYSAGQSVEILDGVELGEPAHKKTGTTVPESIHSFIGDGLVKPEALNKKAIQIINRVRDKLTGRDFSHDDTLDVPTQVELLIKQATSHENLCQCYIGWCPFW

| SMILES | IC50 [1] [nM] | PI3Ka IC50 (PI3Kα (p110α/p85α)) [nM] | IC50 (U87MG tumour cells; Homo sapiens, U-87 MG, 72 h) [nM] | IC50 (Akt-pS473 in U87MG cells; [2]) [nM] | IC50 (U87MG tumour cells) [nM] | IC50 (Akt-pS473 in U87MG cells; read-out: U87 Akt-pS473 % Inhibition or IC50, nM (IC50), U87MG cells) [nM] |
| --- | --- | --- | --- | --- | --- | --- |
| CCN1CC(C)(C)Oc2nc(N3CCOC[C@@H]3C)nc(-c3ccc(NC(=O)Nc4ccc(C)cn4)cc3)c2C1=O [Example 168, 1-{4-[6-Ethyl-8,8-dimethyl-2-((S)-3-methylmorpholin-4-yl)-5-oxo-5,6,7,8-tetrahydro-9-oxa-1,3,6-triazabenzocyclohepten-4-yl]phenyl}-3-(5-methylpyridin-2-yl)urea] | 18 | 1385 | 231 | 48 |  |  |
| CCN1CC(C)(C)Oc2nc(N3CCOC[C@@H]3C)nc(-c3ccc(NC(=O)Nc4ccc(C)cn4)cc3)c2C1=O [Example 169, 1-{4-[6-Ethyl-8,8-dimethyl-2-((S)-3-methylmorpholin-4-yl)-5-oxo-5,6,7,8-tetrahydro-9-oxa-1,3,6-triazabenzocyclohepten-4-yl]phenyl}-3-(5-methylpyridin-2-yl)urea] | 31 | 1450 |  |  | 299 | 26 |
| CCN1CC(C)(C)Oc2nc(N3CCOC[C@@H]3C)nc(-c3ccc(NC(=O)Nc4nnc(C)o4)c(F)c3)c2C1=O [Example 170, 1-{4-[6-Ethyl-8,8-dimethyl-2-((S)-3-methylmorpholin-4-yl)-5-oxo-5,6,7,8-tetrahydro-9-oxa-1,3,6-triazabenzocyclohepten-4-yl]-2-fluorophenyl}-3-(5-methyl-[1,3,4]oxadiazol-2-yl)urea] | 106 | 824 | 557 | 94 |  |  |
| CCN1CC(C)(C)Oc2nc(N3CCOC[C@@H]3C)nc(-c3ccc(NC(=O)Nc4ccc(N5CCN(C)CC5)nc4)c(F)c3)c2C1=O [Example 171, 1-{4-[6-Ethyl-8,8-dimethyl-2-((S)-3-methylmorpholin-4-yl)-5-oxo-5,6,7,8-tetrahydro-9-oxa-1,3,6-triazabenzocyclohepten-4-yl]-2-fluorophenyl}-3-[6-(4-methylpiperazin-1-yl)pyridin-3-yl]urea] | 37 | 308 | 91 | 41 |  |  |
| COCCN1CC(C)(C)Oc2nc(N3CC4CCC(C3)O4)nc(-c3ccc(NC(=O)Nc4ccon4)cc3)c2C1=O [Example 172, 1-Isoxazol-3-yl-3-{4-[6-(2-methoxyethyl)-8,8-dimethyl-2-(8-oxa-3-azabicyclo[3.2.1]oct-3-yl)-5-oxo-5,6,7,8-tetrahydro-9-oxa-1,3,6-triazabenzocyclohepten-4-yl]phenyl}urea] | 20 | <10000 | 198 | 98 |  |  |
| CCN1CC(C)(C)Oc2nc(N3CCOC[C@@H]3C)nc(-c3ccc(NC(=O)Nc4ccc(OC)cn4)cc3)c2C1=O [Example 173, 1-{4-[6-Ethyl-8,8-dimethyl-2-((S)-3-methylmorpholin-4-yl)-5-oxo-5,6,7,8-tetrahydro-9-oxa-1,3,6-triazabenzocyclohepten-4-yl]phenyl}-3-(5-methoxypyridin-2-yl)urea] | 12 | 1602 | 242 | 42 |  |  |
| CCN1CC(C)(C)Oc2nc(N3CCOC[C@@H]3C)nc(-c3ccc(NC(=O)Nc4ccc(N5CCN(C)CC5)nc4)cc3)c2C1=O [Example 174, 1-{4-[6-Ethyl-8,8-dimethyl-2-((S)-3-methylmorpholin-4-yl)-5-oxo-5,6,7,8-tetrahydro-9-oxa-1,3,6-triazabenzocyclohepten-4-yl]phenyl}-3-[6-(4-methylpiperazin-1-yl)pyridin-3-yl]urea] | 22 | 326 | 125 | 36 |  |  |
| CCN1CC(C)(C)Oc2nc(N3CC4CCC(C3)O4)nc(-c3ccc(NC(=O)Nc4ccc(C(=O)N(C)CCN(C)C)cc4)cc3)c2C1=O [Example 176, N-(2-Dimethylaminoethyl)-4-(3-{4-[6-ethyl-8,8-dimethyl-2-(8-oxa-3-azabicyclo[3.2.1]oct-3-yl)-5-oxo-5,6,7,8-tetrahydro-9-oxa-1,3,6-triazabenzocyclohepten-4-yl]phenyl}ureido)-N-methylbenzamide] | 69 | 100 | 83 | 314 |  |  |
| CCN1CC(C)(C)Oc2nc(N3CC4CCC(C3)O4)nc(-c3ccc(NC(=O)Nc4ccc(C(=O)N5CCC(N(C)C)CC5)cc4)cc3)c2C1=O [Example 177, 1-[4-(4-Dimethylaminopiperidine-1-carbonyl)phenyl]-3-{4-[6-ethyl-8,8-dimethyl-2-(8-oxa-3-azabicyclo[3.2.1]oct-3-yl)-5-oxo-5,6,7,8-tetrahydro-9-oxa-1,3,6-triazabenzocyclohepten-4-yl]phenyl}urea] | 84 | 87 | 57 | 435 |  |  |
| COCCN1CC(C)(C)Oc2nc(N3CC4CCC(C3)O4)nc(-c3ccc(NC(=O)Nc4ccc(OC)nc4)c(F)c3)c2C1=O [Example 178, 1-{2-Fluoro-4-[6-(2-methoxyethyl)-8,8-dimethyl-2-(8-oxa-3-azabicyclo[3.2.1]oct-3-yl)-5-oxo-5,6,7,8-tetrahydro-9-oxa-1,3,6-triazabenzocyclohepten-4-yl]phenyl}-3-(6-methoxypyridin-3-yl)urea] | 45 | >10000 | 252 | 104 |  |  |
| COCCN1CC(C)(C)Oc2nc(N3CC4CCC(C3)O4)nc(-c3ccc(NC(=O)Nc4ccon4)c(F)c3)c2C1=O [Example 179, 1-{2-Fluoro-4-[6-(2-methoxyethyl)-8,8-dimethyl-2-(8-oxa-3-azabicyclo[3.2.1]oct-3-yl)-5-oxo-5,6,7,8-tetrahydro-9-oxa-1,3,6-triazabenzocyclohepten-4-yl]phenyl}-3-isoxazol-3-ylurea] | 58 | >10000 | 1330 | 331 |  |  |
| COCCN1CC(C)(C)Oc2nc(N3CCOC[C@@H]3C)nc(-c3ccc(NC(=O)Nc4ccon4)cc3)c2C1=O [Example 180, 1-Isoxazol-3-yl-3-{4-[6-(2-methoxyethyl)-8,8-dimethyl-2-((S)-3-methylmorpholin-4-yl)-5-oxo-5,6,7,8-tetrahydro-9-oxa-1,3,6-triazabenzocyclohepten-4-yl]phenyl}urea] | 11 | 604 | 146 | 65 |  |  |
| CCN1CC(C)(C)Oc2nc(N3CCOC[C@@H]3C)nc(-c3ccc(NC(=O)Nc4cc(OC)ccn4)c(F)c3)c2C1=O [Example 181, 1-{4-[6-Ethyl-8,8-dimethyl-2-((S)-3-methylmorpholin-4-yl)-5-oxo-5,6,7,8-tetrahydro-9-oxa-1,3,6-triazabenzocyclohepten-4-yl]-2-fluorophenyl}-3-(4-methoxypyridin-2-yl)urea] | 74 | 7650 | 1320 | 285 |  |  |
| CCN1CC(C)(C)Oc2nc(N3CCOC[C@@H]3C)nc(-c3ccc(NC(=O)Nc4cn(C)cn4)c(F)c3)c2C1=O [Example 182, 1-{4-[6-Ethyl-8,8-dimethyl-2-((S)-3-methylmorpholin-4-yl)-5-oxo-5,6,7,8-tetrahydro-9-oxa-1,3,6-triazabenzocyclohepten-4-yl]-2-fluorophenyl}-3-(1-methyl-1H-imidazol-4-yl)urea] | 26 | 159 | 2930 | 407 |  |  |
| CCN1CC(C)(C)Oc2nc(N3CC4CCC(C3)O4)nc(-c3ccc(Nc4nnc(-c5ccc(OC)nc5)[nH]4)c(F)c3)c2C1=O [Example 183, 6-Ethyl-4-{3-fluoro-4-[5-(6-methoxypyridin-3-yl)-4H-[1,2,4]triazol-3-ylamino]phenyl}-8,8-dimethyl-2-(8-oxa-3-azabicyclo[3.2.1]oct-3-yl)-7,8-dihydro-6H-9-oxa-1,3,6-triazabenzocyclohepten-5-one] | 128 | >10000 | 752 | 165 |  |  |
| CCN1CC(C)(C)Oc2nc(N3CCOC[C@@H]3C)nc(-c3ccc(NC(=O)Nc4cc(OC)ccn4)cc3)c2C1=O [Example 184, 1-{4-[6-Ethyl-8,8-dimethyl-2-((S)-3-methylmorpholin-4-yl)-5-oxo-5,6,7,8-tetrahydro-9-oxa-1,3,6-triazabenzocyclohepten-4-yl]phenyl}-3-(4-methoxypyridin-2-yl)urea] | 12 | 12978 | 368 | 65 |  |  |
| CCN1CC(C)(C)Oc2nc(N3CC4CCC(C3)O4)nc(-c3ccc(NC(=O)Nc4ccc(C)nc4)c(F)c3)c2C1=O [Example 185, 1-{4-[6-Ethyl-8,8-dimethyl-2-(8-oxa-3-azabicyclo[3.2.1]oct-3-yl)-5-oxo-5,6,7,8-tetrahydro-9-oxa-1,3,6-triazabenzocyclohepten-4-yl]-2-fluorophenyl}-3-(6-methylpyridin-3-yl)urea] | 24 | 5680 | 73 | 20 |  |  |
